PubChem BioAssay AID330 (DTP/NCI, 2004)
“And” between values parts separate entries of the source, which are not always exact repeats. Identical values can stand only once. Inconclusive results and toxic doses are left out. How the source made its calls: active means survival T/C of 150% or more; inactive means T/C below 125% in these data.

Test system: P388 leukemia ip, CD2F1 mice, survival T/C
Experiment: NCI In Vivo Anticancer Drug Screen. Data for tumor model P388 Leukemia (intraperitoneal) in CD2F1 (CDF1) mice
Details: endpoint: median survival time, higher = longer survival
Summary of the method: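 Mice carrying the transplanted tumor received test compound or vehicle. Survival was recorded in each group, and the value is the treated-group measurement divided by that of the vehicle-treated control group.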

[1] = dose: 50.0 mg/kg/injection, schedule: Q01DX005 (ip), vehicle: saline with Tween-80
[2] = dose: 100.0 mg/kg/injection, schedule: Q01DX005 (ip), vehicle: saline with Tween-80
[3] = dose: 200.0 mg/kg/injection, schedule: Q01DX005 (ip), vehicle: saline with Tween-80
[4] = dose: 100.0 mg/kg/injection, schedule: Q04DX003 (ip), vehicle: saline
[5] = dose: 200.0 mg/kg/injection, schedule: Q04DX003 (ip), vehicle: saline
[6] = dose: 50.0 mg/kg/injection, schedule: Q01DX005 (ip), vehicle: Klucel (hydroxypropylcellulose) (HPC)
[7] = dose: 100.0 mg/kg/injection, schedule: Q01DX005 (ip), vehicle: Klucel (hydroxypropylcellulose) (HPC)
[8] = dose: 200.0 mg/kg/injection, schedule: Q01DX005 (ip), vehicle: Klucel (hydroxypropylcellulose) (HPC)
[9] = dose: 50.0 mg/kg/injection, schedule: Q01DX009 (ip), vehicle: saline
[10] = dose: 60.0 mg/kg/injection, schedule: Q01DX005 (ip), vehicle: saline with Tween-80
[11] = dose: 6.25 mg/kg/injection, schedule: Q01DX009 (ip), vehicle: saline with Tween-80
[12] = dose: 12.5 mg/kg/injection, schedule: Q01DX009 (ip), vehicle: saline with Tween-80
[13] = dose: 12.5 mg/kg/injection, schedule: Q01DX009 (ip), vehicle: saline
[14] = dose: 25.0 mg/kg/injection, schedule: Q01DX009 (ip), vehicle: saline
[15] = dose: 120.0 mg/kg/injection, schedule: Q01DX005 (ip), vehicle: saline with Tween-80
[16] = dose: 240.0 mg/kg/injection, schedule: Q01DX005 (ip), vehicle: saline with Tween-80
[17] = dose: 12.5 mg/kg/injection, schedule: Q01DX009 (ip), vehicle: Klucel (hydroxypropylcellulose) (HPC)
[18] = dose: 25.0 mg/kg/injection, schedule: Q01DX009 (ip), vehicle: saline with Tween-80

Measured: T/C

C=C(C)C1CC2(C)C(C)C(OC(=O)/C(C)=C\C)CCC2C(O)C1=O (centres undefined)
inactive: dose: 15.0 mg/kg/injection, schedule: Q04DX002 (ip), vehicle: distilled water + alcohol 96 % of control | dose: 30.0 mg/kg/injection, schedule: Q04DX002 (ip), vehicle: distilled water + alcohol 104 % of control | dose: 57.5 mg/kg/injection, schedule: Q04DX002 (ip), vehicle: distilled water + alcohol 107 % of control

C=CCOc1cc2c(cc1C(C)c1ccc(OCC)cc1)OCO2 (centres undefined)
inactive: [1] 100 % of control and 104 % of control | [2] 112 % of control and 91 % of control | [3] 122 % of control and 123 % of control

CC(=O)N(CC1CNc2nc(N)[nH]c(=O)c2N1)c1ccc(C(=O)NC(CCC(=O)O)C(=O)O)cc1 (centres undefined)
inactive: dose: 50.0 mg/kg/injection, schedule: Q04DX003 (ip), vehicle: saline 98 % of control | [4] 102 % of control | [5] 95 % of control

CC1CCC2=C(C1)c1ccc(O)cc1OC2(C)C (centres undefined)
inactive: [6] 100 % of control | [7] 96 % of control | [8] 93 % of control

c1ccc(-c2nc3ccccc3c3ccccc23)cc1
inactive: [1] 101 % of control | [2] 113 % of control | [3] 102 % of control

CC1=C(C)NC(C)=C(C)N1
inactive: [9] 97 % of control | dose: 100.0 mg/kg/injection, schedule: Q01DX009 (ip), vehicle: saline 95 % of control | dose: 200.0 mg/kg/injection, schedule: Q01DX009 (ip), vehicle: saline 97 % of control

Cc1cc2[nH]c3c(C#N)c(OC(=O)N(C)C)c(C)c(=O)n3c2cc1C
inactive: dose: 15.0 mg/kg/injection, schedule: Q01DX005 (ip), vehicle: saline with Tween-80 100 % of control | dose: 30.0 mg/kg/injection, schedule: Q01DX005 (ip), vehicle: saline with Tween-80 108 % of control | [10] 100 % of control and 93 % of control

O=[N+]([O-])c1cnc(Sc2ccncn2)c([N+](=O)[O-])c1
inactive: dose: 3.12 mg/kg/injection, schedule: Q01DX009 (ip), vehicle: saline with Tween-80 105 % of control | [11] 98 % of control | [12] 102 % of control | [13] 100 % of control | [14] 89 % of control | [9] 99 % of control

CCOC(=O)C1=C(C(=O)c2cccc3ccccc23)C(c2ccc([N+](=O)[O-])cc2)C(C(=O)c2cccc3ccccc23)=C(C(=O)OCC)N1
inactive: dose: 60.0 mg/kg/injection, schedule: Q01DX005 (ip), vehicle: Klucel (hydroxypropylcellulose) (HPC) 87 % of control and 88 % of control | dose: 120.0 mg/kg/injection, schedule: Q01DX005 (ip), vehicle: Klucel (hydroxypropylcellulose) (HPC) 87 % of control | dose: 240.0 mg/kg/injection, schedule: Q01DX005 (ip), vehicle: Klucel (hydroxypropylcellulose) (HPC) 86 % of control and 95 % of control

CCc1c(O)c(C#N)c2[nH]c3cc(C)c(C)cc3n2c1=O
inactive: [10] 100 % of control | [15] 102 % of control | [16] 99 % of control

O/N=C(/CC(c1ccccc1)N1CCOCC1)c1ccccc1 (centres undefined)
inactive: [6] 93 % of control | [7] 90 % of control

CC(C)(C)C(=O)Nc1c(Cl)c(C2CC2)nn1-c1ccccc1
inactive: [10] 100 % of control | [15] 102 % of control | [16] 90 % of control

COc1cc(C(=O)N=Nc2c(O)[nH]c3ccc(Br)cc23)cc(OC)c1OC
inactive: dose: 3.13 mg/kg/injection, schedule: Q01DX009 (ip), vehicle: Klucel (hydroxypropylcellulose) (HPC) 115 % of control | dose: 6.25 mg/kg/injection, schedule: Q01DX009 (ip), vehicle: Klucel (hydroxypropylcellulose) (HPC) 106 % of control | [17] 105 % of control | dose: 400.0 mg/kg/injection, schedule: Q01DX009 (ip), vehicle: Klucel (hydroxypropylcellulose) (HPC) 86 % of control

CC1CCC[N+](C)([B-](F)(F)F)C1 (centres undefined)
inactive: dose: 50.0 mg/kg/injection, schedule: Q01DX005 (ip), vehicle: saline 100 % of control | dose: 100.0 mg/kg/injection, schedule: Q01DX005 (ip), vehicle: saline 100 % of control

COC1=Nc2ccccc2N2CCN=C12
inactive: [13] 86 % of control | [14] 100 % of control | [9] 100 % of control

O=C(Cc1ccccn1)c1cccnc1
inactive: [4] 94 % of control | [5] 96 % of control | dose: 400.0 mg/kg/injection, schedule: Q04DX003 (ip), vehicle: saline 100 % of control

BrC1CCC(OCc2ccccc2)C(OCc2ccccc2)C1 (centres undefined)
inactive: dose: 50.0 mg/kg/injection, schedule: Q01DX009 (ip), vehicle: Klucel (hydroxypropylcellulose) (HPC) 100 % of control | dose: 100.0 mg/kg/injection, schedule: Q01DX009 (ip), vehicle: Klucel (hydroxypropylcellulose) (HPC) 98 % of control | dose: 200.0 mg/kg/injection, schedule: Q01DX009 (ip), vehicle: Klucel (hydroxypropylcellulose) (HPC) 97 % of control

CN(C)c1nc(NC(=O)NC(=O)c2c(F)cccc2F)nc(N(C)C)n1
inactive: [11] 101 % of control | [12] 111 % of control | [18] 104 % of control

CC1(C)OC(c2ccccc2)=CC1=O
inactive: dose: 100.0 mg/kg/injection, schedule: Q04DX002 (ip), vehicle: saline with Tween-80 101 % of control | dose: 200.0 mg/kg/injection, schedule: Q04DX002 (ip), vehicle: saline with Tween-80 101 % of control

C[N+](C)(C)CCC(=O)c1ccccc1
inactive: [17] 99 % of control | dose: 25.0 mg/kg/injection, schedule: Q01DX009 (ip), vehicle: Klucel (hydroxypropylcellulose) (HPC) 96 % of control

c1ccc2c(c1)ccc1c3ccccc3ncc21
inactive: dose: 12.5 mg/kg/injection, schedule: Q04DX003 (ip), vehicle: distilled water + Tween-80 107 % of control | dose: 25.0 mg/kg/injection, schedule: Q04DX003 (ip), vehicle: distilled water + Tween-80 96 % of control | dose: 50.0 mg/kg/injection, schedule: Q04DX003 (ip), vehicle: distilled water + Tween-80 98 % of control | dose: 100.0 mg/kg/injection, schedule: Q04DX003 (ip), vehicle: distilled water + Tween-80 102 % of control | dose: 200.0 mg/kg/injection, schedule: Q04DX003 (ip), vehicle: distilled water + Tween-80 102 % of control | dose: 400.0 mg/kg/injection, schedule: Q04DX003 (ip), vehicle: distilled water + Tween-80 98 % of control

c1ccc(-c2cnn3c(-c4ccccc4)cnnc23)cc1
inactive: [6] 99 % of control | [7] 99 % of control | [8] 99 % of control

CC(C)CC(NC(=O)C(Cc1cnc[nH]1)N(C(=O)OCc1ccccc1)C(=O)OCc1ccccc1)C(=O)NN (centres undefined)
inactive: [1] 101 % of control | [2] 106 % of control | [3] 106 % of control

NC(=S)N/N=C\C(=O)c1ccccc1O
inactive: dose: 9.4 mg/kg/injection, schedule: Q01DX009 (ip), vehicle: saline with Tween-80 100 % of control (2×) and 101 % of control | dose: 18.75 mg/kg/injection, schedule: Q01DX009 (ip), vehicle: saline with Tween-80 90 % of control and 95 % of control and 98 % of control | dose: 75.0 mg/kg/injection, schedule: Q01DX009 (ip), vehicle: saline with Tween-80 99 % of control and 105 % of control | dose: 150.0 mg/kg/injection, schedule: Q01DX009 (ip), vehicle: saline with Tween-80 103 % of control

O=C1NC(=O)C2C1C1C3OC3C2C2C3C(=O)NC(=O)C3C12 (centres undefined)
inactive: [11] 102 % of control | [12] 116 % of control | [18] 110 % of control
active: dose: 100.0 mg/kg/injection, schedule: Q01DX009 (ip), vehicle: saline with Tween-80 168 % of control

CC(=O)OC1C=CC2Oc3ccc(C)cc3C1(C)O2 (centres undefined)
inactive: [10] 93 % of control | [15] 106 % of control | [16] 101 % of control

c1ccc2nc(N3CCCC3)c(N3CCCCCC3)nc2c1
inactive: [6] 100 % of control | [7] 100 % of control | [8] 107 % of control

NC(CS)C(=O)[O][Sn]([O]C(=O)C(N)CS)([O]C(=O)C(N)CS)[O]C(=O)C(N)CS (centres undefined)
inactive: [6] 99 % of control | [7] 108 % of control | [8] 89 % of control

O=C1C=CN(C2OC(CO)C(O)C2O)C(=O)C1 (centres undefined)
inactive: dose: 11.0 mg/kg/injection, schedule: Q01DX009 (ip), vehicle: saline 117 % of control | dose: 16.0 mg/kg/injection, schedule: Q01DX009 (ip), vehicle: saline 122 % of control | dose: 22.0 mg/kg/injection, schedule: Q01DX009 (ip), vehicle: saline 120 % of control and 122 % of control and 124 % of control | dose: 33.0 mg/kg/injection, schedule: Q01DX009 (ip), vehicle: saline 109 % of control and 119 % of control and 120 % of control | [9] 118 % of control and 124 % of control
